Data: US20110281852A1 (priority 2010, published 2011)

Assays:
[1] = tested on: human white preadipocytes (HWP); experiment: Oil-Red-O staining and quantification, HWP differentiation; type: cell-based; details: 15 days post differentiation induction
Description: Cell culture: Cell culture was carried out following the protocol provided by Promocell Company. […] Differentiation was induced with preadipocyte Differentiation Medium (DM) for 3 days (days 3), where upon the medium was changed to adipocyte Nutrition Medium (NM) and cultured for 12 days (days 15) (HWP cell line and media were purchased from Promocell, Heidelberg, Germany).
Oil-Red-O Staining and quantification: Oil-Red-O Staining and quantitative Oil-Red-O Staining were performed as previously reported. Briefly, medium was removed and cells were washed with PBS twice, fixed with 3.7% formalin at room temperature for 30 min, then rinsed with water, added 60% 2-propanol and incubated for 5 minutes, then moved out 2-propanol and stained cells with Oil-Red-O solution (Oil-Red-O store solution (3 mg/ml in pure 2-propanol): water=3:2) at room temperature for 10 min. Then the Oil-Red-O solution was removed and cells were washed 3 times with water. Images were obtained using an Olympus IX70 inverted microscope equipped for phase-contrast microscopy (Olympus, Tokyo, Japan). After staining, the cells were washed twice with 70% ethanol to remove excess stain. Stained oil droplets in the cells were dissolved in 2-propanol containing 4% Nonidet-P40 (Fisher Scientific, Pittsburgh, Pa., USA) and OD values were measured at an absorbance of 490 nm.

[2] = tested on: PPARγ; experiment: Immunoblot, PPARγ protein in HWP; type: cell-based, human; details: day 15
Description: (§1) Immunoblot Analysis: Protein expression of GATA-2, GATA-3, PPARγ and C/EBPα were assessed by Western Blot. Total proteins were isolated from HWP treated with compounds or vehicles on day 15. The cells were washed twice with PBS, lysed in a lysis buffer containing HEPES-Tx-PI buffer: […] HEPES, 5 mM EDTA, 350 mM Sucrose, 1 μg/ml leupeptin, 1 μg/ml pepstatin, 1% Triton-X, 1 mM PMSF), processed with a 25G needle and centrifuged at 10,000 rpm for 5 min. Protein concentration was determined using the Micro BCA Protein Assay Kit (Fisher Scientific, Pittsburgh, Pa., USA) according to the manufacturers instructions. 20 μg proteins were loaded and separated by electrophoresis using the BioRad Electrophoretic System (60 V for 1 hour followed by 90 V for 5 hours). The proteins were then transferred to nitrocellulose membranes at 35 V overnight. The membrane was blocked for 1 hour at room temperature in 5% nonfat milk in Tris-buffered saline (TBS), then washed with Tween-20-TBS (TTBS, 0.1% Tween-20) three times (15 min, 5 min, 5 min), followed by incubation with primary antibodies human GATA-2, GATA-3, PPARγ, C/EBPα and β-actin (dilution 1:200) (all antibodies were purchased from Santa Cruz Biotechnology, Santa Cruz, Calif., USA) at room temperature for 2 hours. […]

[3] = tested on: human white preadipocytes (HWP); experiment: MTT assay, viability of HWP during differentiation; type: cell-based; details: 15 days of differentiation
Description: Cell culture: Cell culture was carried out following the protocol provided by Promocell Company. Briefly, human white preadipocytes (HWP's […]) were cultured at 37° C. in a humidified 5% CO2 atmosphere and grown in a preadipocyte Growth medium (GM) with 100 units/ml penicillin and 100 μg/ml streptomycin until confluence (day 0). Differentiation was induced with preadipocyte Differentiation Medium (DM) for 3 days (days 3), where upon the medium was changed to adipocyte Nutrition Medium (NM) and cultured for 12 days (days 15) (HWP cell line and media were purchased from Promocell, Heidelberg, Germany).

[4] = tested on: GATA-3; experiment: Immunoblot, GATA-3 protein in HWP; type: cell-based, human; details: day 15
Description: Immunoblot Analysis: Protein expression of GATA-2, GATA-3, PPARγ and C/EBPα were assessed by Western Blot. Total proteins were isolated from HWP treated with compounds or vehicles on day 15. The cells were washed twice with PBS, lysed in a lysis buffer containing HEPES-Tx-PI buffer: […] HEPES, 5 mM EDTA, 350 mM Sucrose, 1 μg/ml leupeptin, 1 μg/ml pepstatin, 1% Triton-X, 1 mM PMSF), processed with a 25G needle and centrifuged at 10,000 rpm for 5 min. Protein concentration was determined using the Micro BCA Protein Assay Kit (Fisher Scientific, Pittsburgh, Pa., USA) according to the manufacturers instructions. 20 μg proteins were loaded and separated by electrophoresis using the BioRad Electrophoretic System (60 V for 1 hour followed by 90 V for 5 hours). The proteins were then transferred to nitrocellulose membranes at 35 V overnight. The membrane was blocked for 1 hour at room temperature in 5% nonfat milk in Tris-buffered saline (TBS), then washed with Tween-20-TBS (TTBS, 0.1% Tween-20) three times (15 min, 5 min, 5 min), followed by incubation with primary antibodies human GATA-2, GATA-3, PPARγ, C/EBPα and β-actin (dilution 1:200) (all antibodies were purchased from Santa Cruz Biotechnology, Santa Cruz, Calif., USA) at room temperature for 2 hours. The membrane was rinsed three times (15 min, 5 min, 5 min), then incubated at room temperature for 1 hour with Horseradish peroxidase-conjugated second antibody (1:10,000). The membrane was then incubated in ECL reagent (GE Healthcare, Piscataway, N.J., USA) for 1 minute. Protein was visualized using the UVP image analysis system (UVP, Upland, Calif., USA).

[5] = tested on: GATA-3; experiment: Real-Time RT-PCR, GATA-3 mRNA in HWP; type: cell-based, human; details: day 15
Source text: (§2) Quantitative Real-Time RT-PCR: Real-Time reverse transcriptase polymerase chain reaction (RT-PCR) analysis was used to measure mRNA expression of human genes PPARγ, C/EBPα, GATA-2 and GATA-3 under the control of β-actin. Briefly, total RNA was isolated from HWP following treatment at days 15 with Trizol reagent (Invitrogen, Carlsbad, Calif., USA) according to the manufacturer's instruction. RNA was quantified using absorption of light at 260 and 280 nm, and sample integrity was checked by 1.5% agarose gel electrophoresis. 0.8 μg of total RNA from each sample was used for reverse transcription reaction using the TaqMan Reverse Transcription Reagents (Applied Biosystems, Foster City, Calif., USA) following the Manufacturer's instructions. PCR was done using the SYBR green Master Mix (Applied Biosystems, Foster City, Calif., USA) following the manufacturer's instructions. The temperature cycling conditions of amplification were as follows: an initial step of denaturation at 95° C. for 10 min, 40 cycles of denaturation at 95° C. for 30 s, annealing at 55° C. for 30 s, and elongation at 72° C. for 30 s. Real-Time RT-PCR was performed using Mx3000P Real-Time Thermocyclers (Statagene, La Jolla, Calif., USA). The relative mRNA levels of these genes were calculated by Pfaffl's mathematical method (Pfaffl, M W, Nucleic Acid Res (2001) 29:e45) and normalized with control-treated groups.

[6] = tested on: PPARγ; experiment: Real-Time RT-PCR, PPARγ mRNA in HWP; type: cell-based, human; details: day 15
Source text: as §2

[7] = tested on: C/EBPα; experiment: Real-Time RT-PCR, C/EBPα mRNA in HWP; type: cell-based, human; details: day 15
Source text: as §2

[8] = tested on: C/EBPα; experiment: Immunoblot, C/EBPα protein in HWP; type: cell-based, human; details: day 15
Description: as §1

[9] = tested on: GATA-2; experiment: Real-Time RT-PCR, GATA-2 mRNA in HWP; type: cell-based, human; details: day 15
Source text: as §2

COc1ccc2cc3[n+](cc2c1OC)CCc1cc2c(cc1-3)OCO2.[Cl-] [berberine, Berberine (Chloride Form)]
reduction in lipid content ([1]; 1 μM): 31.9%
reduction in lipid content ([1]; 2 μM): 42.9%
reduction in lipid content ([1]; 4 μM): 60.6%
reduction in lipid content ([1]; 8 μM): 66.4%
PPARγ protein expression, drug-treated vs control cells [2]: no significant difference
decrease of cell viability vs control ([3]; 1 μM): −3.1%
decrease of cell viability vs control ([3]; 2 μM): 1.1%
decrease of cell viability vs control ([3]; 4 μM): −0.0%
decrease of cell viability vs control ([3]; 8 μM): 1.3%
GATA-3 protein expression vs controls ([4]; 1 μM): 5.63 fold
GATA-3 protein expression vs controls ([4]; 2 μM): 5.65 fold
GATA-3 protein expression vs controls ([4]; 4 μM): 6.43 fold
GATA-3 protein expression vs controls ([4]; 8 μM): 5.37 fold
GATA-3 mRNA expression vs control group ([5]; 1 μM): 2.77 fold
GATA-3 mRNA expression vs control group ([5]; 2 μM): 2.79 fold
GATA-3 mRNA expression vs control group ([5]; 4 μM): 4.43 fold
GATA-3 mRNA expression vs control group ([5]; 8 μM): 6.77 fold
change in PPARγ mRNA expression [6]: no significant changes
change in C/EBPα mRNA expression [7]: no significant changes
C/EBPα protein expression, drug-treated vs control cells [8]: no significant difference
GATA-2 mRNA expression vs vehicle (control) group ([9]; 1 μM): 3.87 fold
GATA-2 mRNA expression vs vehicle (control) group ([9]; 2 μM): 4.1 fold
GATA-2 mRNA expression vs vehicle (control) group ([9]; 4 μM): 3.8 fold
GATA-2 mRNA expression vs vehicle (control) group ([9]; 8 μM): 5.33 fold

evodiamine
reduction in lipid content ([1]; 0.125 μM): 7.5%
reduction in lipid content ([1]; 0.25 μM): 13.8%
reduction in lipid content ([1]; 0.5 μM): 19%
reduction in lipid content ([1]; 1 μM): 27.8%
reduction in lipid content ([1]; 2 μM): 46.7%
reduction in lipid content ([1]; 4 μM): 84.6%
reduction in lipid content ([1]; 8 μM): 112.6%
PPARγ protein expression, drug-treated vs control cells [2]: no significant difference
decrease of cell viability vs control ([3]; 0.25 μM): 14.1%
decrease of cell viability vs control ([3]; 0.5 μM): 15%
decrease of cell viability vs control ([3]; 1 μM): 17.7%
decrease of cell viability vs control ([3]; 2 μM): 30.5%
decrease of cell viability vs control ([3]; 4 μM): 34.2%
decrease of cell viability vs control ([3]; 8 μM): 53.6%
GATA-3 protein expression vs controls ([4]; 1 μM): 4.21 fold
GATA-3 protein expression vs controls ([4]; 2 μM): 4.95 fold
GATA-3 protein expression vs controls ([4]; 4 μM): 6.57 fold
GATA-3 mRNA expression vs control group ([5]; 1 μM): 2.61 fold
GATA-3 mRNA expression vs control group ([5]; 2 μM): 2.7 fold
GATA-3 mRNA expression vs control group ([5]; 4 μM): 2.79 fold
change in PPARγ mRNA expression [6]: no significant changes
change in C/EBPα mRNA expression [7]: no significant changes
C/EBPα protein expression, drug-treated vs control cells [8]: no significant difference
GATA-2 mRNA expression vs vehicle (control) group ([9]; 1 μM): 1.36 fold
GATA-2 mRNA expression vs vehicle (control) group ([9]; 2 μM): 1.5 fold
GATA-2 mRNA expression vs vehicle (control) group ([9]; 4 μM): 2.08 fold
